Experiments:
[1] = system: myocytes isolated from cTnI-G203S mice; experiment: Cell size of myocytes isolated from treated mice; type: in vivo, mouse; settings: 10 μM 3×/wk/5 wk, compared to AID(S)-TAT
Protocol: Cell size was determined as previously described ([64]). Detailed methods are provided in SI Appendix.
(§1) Echocardiographic measurement of left ventricular function were performed on mice under light methoxyflurane anesthesia using an i13L probe on a Vivid 7 Dimension ultrasound system (GE Healthcare, Little Chalfont, United Kingdom) as previously described (4, 7). Echocardiographic measurements were taken on M-mode in triplicate from separate mice at a sweep speed of 200 mm/s. Each n represents the average of quantitative measurements from wt or cTnI-G203S mice for each treatment group. […] FS was calculated by the formula [(LVEDD-LVESD)/EDD] x 100.
(§2) Cell size was determined as previously described (16). […]
(§3) To measure kidney toxicity, urea and creatinine concentration was assessed using QuantiChrom Urea and Creatinine assay kits respectively (BioAssay Systems, Hayward CA). To measure liver toxicity, alanine transaminase (ALT) and aspartate transaminase (AST) concentration was measured using Alanine Transaminase and Aspartate Transaminase assay kits respectively (BioAssay Systems, Hayward CA). […]

[2] = system: myocytes isolated from wt and cTnI-G203S mice; experiment: Confocal imaging of F-actin (phalloidin) in myocytes from treated mice; type: in vivo, mouse; settings: myocytes from cTnI-G203S mice treated 10 μM 3×/wk/5 wk, Pre HCM Rx
Protocol: Following completion of treatment regimens, myocytes were isolated and prepared for confocal imaging based on previously described methods ([29]). Detailed methods are provided in SI Appendix.
as §1, §2, §3

rats = settings: cited from earlier work

QQLEEDLKGYLDWITQAE [AID-TAT]
echocardiographic parameters and cell size ([1]; 30-wk-old cTnI-G203S mice): did not significantly improve echocardiographic parameters, or alter cell size
myocyte cell size ([1]; precardiomyopathic cTnI-G203S mice): significantly lower cell size
F-actin organization [2]: F-actin organization comparable to wt myocytes
contractility and cardiac hypertrophy (rats; following coronary artery occlusion in rats): improves contractility and prevents the development of cardiac hypertrophy
blood pressure and cardiac myocyte calcium influx (rats; rat, in vivo): without decreasing blood pressure or altering cardiac myocyte calcium influx
